Legend:
P388 = assay: Cytotoxicity against mouse P388 cells; format: functional, cell-based
A549 = assay: Cytotoxicity against human A549 cells; format: functional, cell-based

Row | SMILES | IC50 (P388) | IC50 (A549)
1 | C=C1C[C@](OC)([C@H](O)C(=O)N[C@H]2OCO[C@H]3[C@@H]2O[C@H](CC(/C=C/C/C=C/C=C/C(=O)O)OC)C(C)(C)[C@@H]3OC)O[C@H](C)[C@@H]1C (stereo partly specified) [THEOPEDERIN K] | 0.1 nM | 1.5 nM
2 | C=C1C[C@](OC)([C@H](O)C(=O)N[C@H]2OCO[C@H]3[C@@H]2O[C@H](CC(O)/C=C/C/C=C/C=C/C(=O)O)C(C)(C)[C@@H]3OC)O[C@H](C)[C@@H]1C (stereo partly specified) [THEOPEDERIN L] | 7.3 nM | 3.2 nM
3 | C=C1C[C@](OC)([C@H](O)C(=O)N[C@H]2OCO[C@H]3[C@@H]2O[C@H](CC(/C=C/C/C=C/C=C/C(=O)OC)OC)C(C)(C)[C@@H]3OC)O[C@H](C)[C@@H]1C (stereo partly specified) [THEOPEDERIN K METHYL ESTER] | 0.3 nM | 0.8 nM
